From patent US4782042A, “Antibiotic A 40926 mannosyl aglycon” (Gruppo Lepetit S.p.A., priority 1985, dated 1988)

Columns and labels:
Staph. aureus Tour = assay: MIC, broth dilution (Isosensitest broth, 24 h); format: cell-based
[1] = tested on: Staph. epidermidis ATCC 12228; assay: MIC, broth dilution (Isosensitest broth, 24 h); format: cell-based
Strep. pyogenes C203 = assay: MIC, broth dilution (Todd-Hewitt broth, 24 h); format: cell-based
Strep. pneumoniae UC41 = assay: MIC, broth dilution (Todd-Hewitt broth, 24 h); format: cell-based
[2] = tested on: Strep. faecalis ATCC 7080; assay: MIC, broth dilution (Isosensitest broth, 24 h); format: cell-based
[3] = tested on: Strept. mitis clin. isolate; assay: MIC, broth dilution (Todd-Hewitt broth, 24 h); format: cell-based
[4] = tested on: Clostridium perfringens ISS30543; format: cell-based; details: anaerobic
[5] = tested on: Clostridium difficile ATCC 9689; assay: MIC, agar dilution (Wilkins-Chalgren agar, 48 h, anaerobic); format: cell-based
[6] = tested on: Bacteroides fragilis ATCC 23745; assay: as above; format: cell-based
[7] = tested on: Propionibacterium acnes ATCC 6919; assay: as above; format: cell-based
[8] = tested on: Neisseria gonorrhoeae ISM68/126; assay: MIC, broth dilution (GC base broth + 1% Isovitalex, 48 h, CO2-enriched); format: cell-based
[9] = tested on: Haemophilus influenzae type b ATCC 19418; assay: MIC, agar dilution (GB base agar + 1% Isovitalex + 0.001% hemin, 24 h); format: cell-based
[10] = tested on: Escherichia coli SKF 12140; assay: MIC, broth dilution (Isosensitest broth, 24 h); format: cell-based
[11] = tested on: Mycoplasma gallisepticum S6 Weybridge; assay: MIC, broth dilution (PPLO broth + 10% horse serum + 1% glucose, 48 h); format: cell-based
S. pyogenes C 203 = assay: Experimental septicemia in mice, ED50; format: in vivo; details: mice infected intraperitoneally with S. pyogenes C 203; treated subcutaneously about 30 min after infection; survival, calculated on the 10th day (Spearman and Karber)
Description: The antimicrobial activity of the compound of the invention is confirmed also in in vivo experiments conducted essentially as described by R. Pallanza et al., J. Antimicrob. Chemother. 11, 419 (1983). The experimental infection was induced in mice by intraperitoneally administering a suspension of S. pyogenes C 203. Inocula had been adjusted so that the untreated animals died of septicemia within 48 h. Animals were treated subcutaneously with the test compound about 30 min after infection. The ED50 value was calculated on the 10th day by the method of Spearman and Karber (D. J. Finney "Statistical Methods in Biological Assay", Griffin, page 524, 1952) on the basis of the percentage of survival at each dose.

## antibiotic A 40926 mannosyl aglycon
Staph. aureus Tour; Staph. aureus Tour (L165), 10^6 cfu/ml
  M.I.C.: 1 µg/mL
Staph. aureus Tour; Staph. aureus Tour, 30% bovine serum
  M.I.C.: 2 µg/mL
Staph. aureus Tour; Staph. aureus Tour, inoculum about 10^4-10^5 cfu/ml
  M.I.C.: 0.25 µg/mL
[1]
  M.I.C.: 0.5 µg/mL
Strep. pyogenes C203
  M.I.C.: 1 µg/mL
Strep. pneumoniae UC41
  M.I.C.: 1 µg/mL
[2]
  M.I.C.: 1 µg/mL
[3]
  M.I.C.: 1 µg/mL
[4]
  M.I.C.: 0.13 µg/mL
[5]
  M.I.C.: 2 µg/mL
[6]
  M.I.C.: 64 µg/mL
[7]
  M.I.C.: 1 µg/mL
[8]
  M.I.C.: 32 µg/mL
[9]
  M.I.C.: 64 µg/mL
[10]
  M.I.C.: > 128 µg/mL
[11]
  M.I.C.: > 128 µg/mL
S. pyogenes C 203
  ED50: 3.8 mg/kg
